Experimental data taken from ChEMBL document CHEMBL1152857, “Possible anticancer agents: QSAR analogs of glutamamide: synthesis and pharmacological activity of 1,5-N,N'-disubstituted-2-(substituted benzenesulphonyl) glutamamides” (2009).

How the values were obtained:
[1] = Anticancer activity against mouse EAC cells xenografted in Swiss albino mouse assessed as inhibition of ascitic fluid weight; type: functional, Ehrlich
[2] = Anticancer activity against mouse EAC cells xenografted in Swiss albino mouse assessed as inhibition of ascitic cell count; type: functional, Ehrlich
IMR-32 = assay: Cytotoxicity against human IMR32 cells at 60 ug/ml by MTT assay; type: functional
[3] = Anticancer activity against mouse EAC cells xenografted in Swiss albino mouse assessed as inhibition of ascitic fluid weight at 1 mg/kg; type: functional; conditions: Ehrlich
[4] = Anticancer activity against mouse EAC cells xenografted in Swiss albino mouse assessed as inhibition of ascitic cell count at 1 mg/kg; type: functional; conditions: Ehrlich

Question: For CC(C)CNC(=O)CCC(NS(=O)(=O)c1ccc(Br)cc1)C(=O)NCC(C)C (stereo not given), which “inhibition (INH)” value [1] is on record?
Answer: The value was 54%.

Question: What about the “inhibition (INH)” value [2] of the same compound?
Answer: The value was 50.8%.

Question: And the inhibition at 60 µg/mL (IMR-32)?
Answer: The inhibition at 60 µg/mL was 17.1%.

Question: Which “inhibition (INH)” value [1] does the source give for O=C(CCC(NS(=O)(=O)c1ccc(Br)cc1)C(=O)NC1CCCCC1)NC1CCCCC1 (stereo not given) here?
Answer: Its value is 43%.

Question: What about the “inhibition (INH)” value [2] of the same compound?
Answer: The value was 47%.

Question: And the inhibition at 60 µg/mL (IMR-32)?
Answer: The inhibition at 60 µg/mL was 18.4%.

Question: Which “inhibition (INH)” value [1] does the source give for O=C(CCC(NS(=O)(=O)c1ccc(Cl)c(Cl)c1)C(=O)NC1CCCCC1)NC1CCCCC1 (stereo not given) here?
Answer: The value was 16.8%.

Question: And the “inhibition (INH)” value [2]?
Answer: The value was 17.4%.

Question: What about the inhibition at 60 µg/mL (IMR-32) of the same compound?
Answer: The inhibition at 60 µg/mL was 24%.

Question: For O=C(CCC(NS(=O)(=O)c1cc(Cl)ccc1Cl)C(=O)NCc1ccccc1)NCc1ccccc1 (stereo not given), which “inhibition (INH)” value [1] is on record?
Answer: The value was 49.9%.

Question: And the “inhibition (INH)” value [2]?
Answer: The value was 53.1%.

Question: And the inhibition at 60 µg/mL (IMR-32)?
Answer: Its inhibition at 60 µg/mL is 13.4%.

Question: For O=C(CCC(NS(=O)(=O)c1ccc(Cl)c(Cl)c1)C(=O)NCc1ccccc1)NCc1ccccc1 (stereo not given), which “inhibition (INH)” value [1] is on record?
Answer: Its value is 40%.

Question: What about the “inhibition (INH)” value [2] of the same compound?
Answer: The value was 45.3%.

Question: And the inhibition at 60 µg/mL (IMR-32)?
Answer: The inhibition at 60 µg/mL was 11.4%.

Question: For CCNC(=O)CCC(NS(=O)(=O)c1cc(C)ccc1Cl)C(=O)NCC (stereo not given), which “inhibition (INH)” value [1] is on record?
Answer: Its value is 28.1%.

Question: And the “inhibition (INH)” value [2]?
Answer: The value was 32.3%.

Question: What about the inhibition at 60 µg/mL (IMR-32) of the same compound?
Answer: Its inhibition at 60 µg/mL is 31.8%.

Question: For CCNC(=O)CCC(NS(=O)(=O)c1ccc(C(C)(C)C)cc1)C(=O)NCC (stereo not given), which “inhibition (INH)” value [1] is on record?
Answer: The value was 30.8%.

Question: What about the “inhibition (INH)” value [2] of the same compound?
Answer: The value was 21.6%.

Question: And the inhibition at 60 µg/mL (IMR-32)?
Answer: Its inhibition at 60 µg/mL is 58.4%.

Question: Which results are given for CC(C)CNC(=O)CCC(NS(=O)(=O)c1cc(Cl)ccc1Cl)C(=O)NCC(C)C (stereo not given)?
Answer: inhibition (INH) [1]: 42.5%; inhibition (INH) [2]: 79.3%; inhibition at 60 µg/mL (IMR-32): 20.4%

Question: Which “inhibition (INH)” value [1] does the source give for CCCCCCNC(=O)CCC(NS(=O)(=O)c1cc(Cl)ccc1Cl)C(=O)NCCCCCC (stereo not given) here?
Answer: Its value is 31.9%.

Question: What about the “inhibition (INH)” value [2] of the same compound?
Answer: The value was 52.9%.

Question: And the inhibition at 60 µg/mL (IMR-32)?
Answer: Its inhibition at 60 µg/mL is 12.4%.

Question: For CC(C)NC(=O)CCC(NS(=O)(=O)c1ccc(C(C)(C)C)cc1)C(=O)NC(C)C (stereo not given), which “inhibition (INH)” value [1] is on record?
Answer: Its value is 44.7%.

Question: And the “inhibition (INH)” value [2]?
Answer: The value was 34.1%.

Question: What about the inhibition at 60 µg/mL (IMR-32) of the same compound?
Answer: The inhibition at 60 µg/mL was 65.6%.

Question: What does the source list for Cc1ccc(S(=O)(=O)NC(CCC(N)=O)C(N)=O)c(C)c1 (stereo not given)?
Answer: inhibition (INH) [1]: 31.2%; inhibition (INH) [2]: 35.2%; inhibition at 60 µg/mL (IMR-32): 28.2%

Question: Which “inhibition (INH)” value [1] does the source give for O=C(CCC(NS(=O)(=O)c1ccc(Br)cc1)C(=O)Nc1ccccc1)Nc1ccccc1 (stereo not given) here?
Answer: The value was 63.4%.

Question: What about the “inhibition (INH)” value [2] of the same compound?
Answer: Its value is 66.5%.

Question: And the inhibition at 60 µg/mL (IMR-32)?
Answer: Its inhibition at 60 µg/mL is 10%.

Question: For CCCNC(=O)CCC(NS(=O)(=O)c1cc(C)ccc1Cl)C(=O)NCCC (stereo not given), which inhibition at 60 µg/mL (IMR-32) is on record?
Answer: Its inhibition at 60 µg/mL is 14.9%.

Question: For CC(C)(C)c1ccc(S(=O)(=O)NC(CCC(N)=O)C(N)=O)cc1 (stereo not given), which “inhibition (INH)” value [1] is on record?
Answer: The value was 27.5%.

Question: And the “inhibition (INH)” value [2]?
Answer: Its value is 42.15%.

Question: Which results are given for CC(C)NC(=O)CCC(NS(=O)(=O)c1cc(Cl)ccc1Cl)C(=O)NC(C)C (stereo not given)?
Answer: inhibition (INH) [1]: 38.5%; inhibition (INH) [2]: 73.3%; inhibition at 60 µg/mL (IMR-32): 16.7%

Question: What does the source list for Cc1ccc(Cl)c(S(=O)(=O)NC(CCC(=O)NCC(C)C)C(=O)NCC(C)C)c1 (stereo not given)?
Answer: inhibition (INH) [1]: 27.9%; inhibition (INH) [2]: 40%

Question: With Cc1ccc(Cl)c(S(=O)(=O)NC(CCC(=O)NC2CCCCC2)C(=O)NC2CCCCC2)c1 (stereo not given) as the compound, how does the “inhibition (INH)” value [1] read?
Answer: The value was 40.2%.

Question: What about the “inhibition (INH)” value [2] of the same compound?
Answer: Its value is 35%.

Question: And the inhibition at 60 µg/mL (IMR-32)?
Answer: The inhibition at 60 µg/mL was 49.7%.

Question: For Cc1ccc(Cl)c(S(=O)(=O)NC(CCC(=O)NCc2ccccc2)C(=O)NCc2ccccc2)c1 (stereo not given), which “inhibition (INH)” value [1] is on record?
Answer: Its value is 36.5%.

Question: And the “inhibition (INH)” value [2]?
Answer: The value was 50.5%.

Question: For CCCCCNC(=O)CCC(NS(=O)(=O)c1cc(C)ccc1Cl)C(=O)NCCCCC (stereo not given), which “inhibition (INH)” value [1] is on record?
Answer: The value was 33.3%.

Question: And the “inhibition (INH)” value [2]?
Answer: Its value is 47.1%.

Question: And the inhibition at 60 µg/mL (IMR-32)?
Answer: The inhibition at 60 µg/mL was 14.7%.

Question: With CCCCCCNC(=O)CCC(NS(=O)(=O)c1cc(C)ccc1Cl)C(=O)NCCCCCC (stereo not given) as the compound, how does the “inhibition (INH)” value [1] read?
Answer: The value was 24.2%.

Question: What about the “inhibition (INH)” value [2] of the same compound?
Answer: The value was 33.4%.

Question: And the inhibition at 60 µg/mL (IMR-32)?
Answer: The inhibition at 60 µg/mL was 11.3%.

Question: For Cc1ccc(Cl)c(S(=O)(=O)NC(CCC(N)=O)C(N)=O)c1 (stereo not given), which “inhibition (INH)” value [1] is on record?
Answer: The value was 36.5%.

Question: And the “inhibition (INH)” value [2]?
Answer: Its value is 28.6%.

Question: And the inhibition at 60 µg/mL (IMR-32)?
Answer: Its inhibition at 60 µg/mL is 25.8%.

Question: Which “inhibition (INH)” value [1] does the source give for CCCCNC(=O)CCC(NS(=O)(=O)c1ccc(C)cc1C)C(=O)NCCCC (stereo not given) here?
Answer: Its value is 46.1%.

Question: And the “inhibition (INH)” value [2]?
Answer: The value was 35.6%.

Question: And the inhibition at 60 µg/mL (IMR-32)?
Answer: Its inhibition at 60 µg/mL is 46.1%.

Question: With CCCCCNC(=O)CCC(NS(=O)(=O)c1ccc(Cl)c(Cl)c1)C(=O)NCCCCC (stereo not given) as the compound, how does the “inhibition (INH)” value [1] read?
Answer: Its value is 28.1%.

Question: And the “inhibition (INH)” value [2]?
Answer: Its value is 10%.

Question: What about the inhibition at 60 µg/mL (IMR-32) of the same compound?
Answer: Its inhibition at 60 µg/mL is 20.8%.

Question: Which results are given for CCCCNC(=O)CCC(NS(=O)(=O)c1cc(C)ccc1Cl)C(=O)NCCCC (stereo not given)?
Answer: inhibition (INH) [1]: 25.2%; inhibition (INH) [2]: 43.5%; inhibition at 60 µg/mL (IMR-32): 18%

Question: For Cc1ccc(Cl)c(S(=O)(=O)NC(CCC(=O)Nc2ccccc2)C(=O)Nc2ccccc2)c1 (stereo not given), which “inhibition (INH)” value [1] is on record?
Answer: Its value is 41.2%.

Question: What about the “inhibition (INH)” value [2] of the same compound?
Answer: The value was 45.5%.

Question: For CCCCNC(=O)CCC(NS(=O)(=O)c1cc(Cl)ccc1Cl)C(=O)NCCCC (stereo not given), which “inhibition (INH)” value [1] is on record?
Answer: Its value is 34%.

Question: What about the “inhibition (INH)” value [2] of the same compound?
Answer: Its value is 57.9%.

Question: What about the inhibition at 60 µg/mL (IMR-32) of the same compound?
Answer: Its inhibition at 60 µg/mL is 15.8%.

Question: Which results are given for CCCCCCNC(=O)CCC(NS(=O)(=O)c1ccc(C)cc1C)C(=O)NCCCCCC (stereo not given)?
Answer: inhibition (INH) [1]: 38.4%; inhibition (INH) [2]: 52.1%; inhibition at 60 µg/mL (IMR-32): 66%

Question: What does the source list for O=C(CCC(NS(=O)(=O)c1ccc(Br)cc1)C(=O)NCc1ccccc1)NCc1ccccc1 (stereo not given)?
Answer: inhibition (INH) [1]: 70%; inhibition (INH) [2]: 48.9%

Question: For CCCCCNC(=O)CCC(NS(=O)(=O)c1cc(Cl)ccc1Cl)C(=O)NCCCCC (stereo not given), which “inhibition (INH)” value [1] is on record?
Answer: The value was 41.2%.

Question: And the “inhibition (INH)” value [2]?
Answer: Its value is 61.1%.

Question: And the inhibition at 60 µg/mL (IMR-32)?
Answer: The inhibition at 60 µg/mL was 12.2%.

Question: Which results are given for Cc1ccc(Cl)c(S(=O)(=O)NC(CCC(=O)NC(C)C)C(=O)NC(C)C)c1 (stereo not given)?
Answer: inhibition (INH) [1]: 81.5%; inhibition (INH) [2]: 53%; inhibition at 60 µg/mL (IMR-32): 29.8%

Question: For CCNC(=O)CCC(NS(=O)(=O)c1cc(Cl)ccc1Cl)C(=O)NCC (stereo not given), which “inhibition (INH)” value [1] is on record?
Answer: The value was 60.5%.

Question: What about the “inhibition (INH)” value [2] of the same compound?
Answer: The value was 67.5%.

Question: And the inhibition at 60 µg/mL (IMR-32)?
Answer: Its inhibition at 60 µg/mL is 12.9%.

Question: With O=C(CCC(NS(=O)(=O)c1cc(Cl)ccc1Cl)C(=O)Nc1ccccc1)Nc1ccccc1 (stereo not given) as the compound, how does the “inhibition (INH)” value [1] read?
Answer: The value was 35.2%.

Question: What about the “inhibition (INH)” value [2] of the same compound?
Answer: The value was 71.1%.

Question: What about the inhibition at 60 µg/mL (IMR-32) of the same compound?
Answer: Its inhibition at 60 µg/mL is 22.9%.

Question: For [N-]=[N+]=CC(=O)CC[C@H](N)C(=O)O [6-DIAZO-5-OXO-L-NORLEUCINE], which inhibition in vivo at 1 mg/kg [3] is on record?
Answer: Its inhibition in vivo at 1 mg/kg is 100%.

Question: What about the inhibition in vivo at 1 mg/kg [4] of the same compound?
Answer: The inhibition in vivo at 1 mg/kg was 100%.

Question: Which inhibition in vivo at 1 mg/kg [3] does the source give for N#[N+]/C=C(\[O-])OC[C@H](N)C(=O)O [AZASERIN] here?
Answer: Its inhibition in vivo at 1 mg/kg is 100%.

Question: What about the inhibition in vivo at 1 mg/kg [4] of the same compound?
Answer: The inhibition in vivo at 1 mg/kg was 100%.

Question: Which results are given for CO[C@@]12[C@H](COC(N)=O)C3=C(C(=O)C(C)=C(N)C3=O)N1C[C@@H]1N[C@@H]12 [MITOMYCIN]?
Answer: inhibition in vivo at 1 mg/kg [3]: 100%; inhibition in vivo at 1 mg/kg [4]: 100%
